Data reported in article PMC4657098, “A Review of the Updated Pharmacophore for the Alpha 5 GABA(A) Benzodiazepine Receptor Model” (International Journal of Medicinal Chemistry, 2015).
pKi: −log10 of the molar value. Where two headings read alike, the source gives them in different places.

How the values were obtained:
α2β3γ2 GABAA/BzR [1] = target: T1, α2β3γ2 GABAA/BzR (Homo sapiens, UniProt P18507+P47869); test: Competition binding to HEK cell membranes, α2β3γ2; set-up: expressed in transfected cells
α1β3γ2 GABAA/BzR [2] = target: T2, α1β3γ2 GABAA/BzR (Homo sapiens, UniProt P14867+P18507); test: Competition binding to HEK cell membranes, α1β3γ2; set-up: expressed in transfected cells
α6β3γ2 GABAA/BzR [3] = target: T3, α6β3γ2 GABAA/BzR (Homo sapiens, UniProt P18507+Q16445); test: Competition binding to HEK cell membranes, α6β3γ2; set-up: expressed in transfected cells
α5β3γ2 GABAA/BzR [4] = target: T4, α5β3γ2 GABAA/BzR (Homo sapiens, UniProt P18507+P31644); test: Competition binding to HEK cell membranes, α5β3γ2; set-up: expressed in transfected cells
α4β3γ2 GABAA/BzR = target: T5, α4β3γ2 GABAA/BzR (Homo sapiens, UniProt P18507+P48169); test: biochemical; assay type: binding
T5 construct: expressed in transfected cells; host or cells: LTK cells (given for XLi-093 only)

α3β3γ2 GABAA/BzR [5] = target: T6, α3β3γ2 GABAA/BzR (Homo sapiens, UniProt P18507+P34903); test: Competition binding to HEK cell membranes, α3β3γ2; set-up: expressed in transfected cells
[6] = test system: Bz BS of GABA(A) receptors; conditions: cited from earlier work
α6β3γ2 GABAA/BzR [7] = target: T3, α6β3γ2 GABAA/BzR; set-up: expressed in transfected cells; host or cells: LTK cells (given for XLi-093 only); conditions: cited from earlier work
α2β3γ2 GABAA/BzR [8] = target: T1, α2β3γ2 GABAA/BzR; set-up: expressed in transfected cells; host or cells: LTK cells (given for XLi-093 only); conditions: cited from earlier work
α1β3γ2 GABAA/BzR [9] = target: T2, α1β3γ2 GABAA/BzR; set-up: expressed in transfected cells; host or cells: LTK cells (given for XLi-093 only); conditions: cited from earlier work
α5β3γ2 GABAA/BzR [10] = target: T4, α5β3γ2 GABAA/BzR; set-up: expressed in transfected cells; host or cells: LTK cells (given for XLi-093 only); conditions: cited from earlier work
α3β3γ2 GABAA/BzR [11] = target: T6, α3β3γ2 GABAA/BzR; set-up: expressed in transfected cells; host or cells: LTK cells (given for XLi-093 only); conditions: cited from earlier work

C#Cc1ccc2c(c1)C(c1ccccc1F)=NC(C)C(=O)N2C (stereo not drawn) [OMB-19]
pKi (α2β3γ2 GABAA/BzR [1]; read-out: Ki α2): 8.34
pKi (α1β3γ2 GABAA/BzR [2]; read-out: Ki α1): 7.66
pKi (α6β3γ2 GABAA/BzR [3]; read-out: Ki α6): 7.40
pKi (α5β3γ2 GABAA/BzR [4]; read-out: Ki α5): 8.46
pKi (α4β3γ2 GABAA/BzR; read-out: Ki α4): 5.48
pKi (α3β3γ2 GABAA/BzR [5]; read-out: Ki α3): 7.70

CN1Cc2c(C(=O)OC(C)(C)C)ncn2-c2ccc(C#C[Si](C)(C)C)cc2C1=O [RY-023 C22H27N3O3Si]
pKi (α2β3γ2 GABAA/BzR [1]; read-out: Ki α2): 6.85
pKi (α1β3γ2 GABAA/BzR [2]; read-out: Ki α1): 6.71
pKi (α6β3γ2 GABAA/BzR [3]; read-out: Ki α6): 7.23
pKi (α5β3γ2 GABAA/BzR [4]; read-out: Ki α5): 8.58
pKi (α4β3γ2 GABAA/BzR; read-out: Ki α4): 8.11
pKi (α3β3γ2 GABAA/BzR [5]; read-out: Ki α3): 6.59

C#Cc1ccc2c(c1)C(=O)N(C)Cc1c(C(=O)OCC)ncn1-2 [RY-080 C17H15N3O3]
pKi (α2β3γ2 GABAA/BzR [1]; Ki α2): 7.67
pKi (α1β3γ2 GABAA/BzR [2]; Ki α1): 7.55
pKi (α6β3γ2 GABAA/BzR [3]; Ki α6): 7.54
pKi (α5β3γ2 GABAA/BzR [4]; Ki α5): 9.31
pKi (α4β3γ2 GABAA/BzR): 8.28
pKi (α3β3γ2 GABAA/BzR [5]; Ki α3): 7.59

CCOC(=O)c1ncn2c1CN(C)C(=O)c1cc(F)ccc1-2 [Ro15-1788]
modulation [6]: antagonist

C[Si](C)(C)C#Cc1ccc2[nH]c3cnc(C(=O)OCC(F)(F)F)cc3c2c1 [WY-B-25]
pKi (α2β3γ2 GABAA/BzR [1]; Ki α2): 7.40
pKi (α1β3γ2 GABAA/BzR [2]; Ki α1): 8.12
pKi (α6β3γ2 GABAA/BzR [3]; Ki α6): 5.70
pKi (α6β3γ2 GABAA/BzR [7]; Figure 33, αxβ3γ2, read-out: Affinity Ki α6): < 5.52
pKi (α5β3γ2 GABAA/BzR [4]; Ki α5): 6.58
pKi (α4β3γ2 GABAA/BzR): 5.70
pKi (α3β3γ2 GABAA/BzR [5]; Ki α3): 7.18

C#Cc1ccc2[nH]c3cnc(C(=O)OCC(F)(F)F)cc3c2c1 [WY-B-26-2]
pKi (α2β3γ2 GABAA/BzR [8]; read-out: Affinity Ki α2): 7.35
pKi (α2β3γ2 GABAA/BzR [1]; Ki α2): 7.35
pKi (α1β3γ2 GABAA/BzR [2]; Ki α1): 8.35
pKi (α6β3γ2 GABAA/BzR [3]; Ki α6): 5.70
pKi (α1β3γ2 GABAA/BzR [9]; read-out: Affinity Ki α1): 8.35
pKi (α5β3γ2 GABAA/BzR [4]; Ki α5): 6.91
pKi (α4β3γ2 GABAA/BzR): 5.70
pKi (α3β3γ2 GABAA/BzR [5]; Ki α3): 7.37
pKi (α5β3γ2 GABAA/BzR [10]; read-out: Affinity Ki α5): 6.91
pKi (α3β3γ2 GABAA/BzR [11]; read-out: Affinity Ki α3): 7.37

CC(C)(C)OC(=O)c1cc2c(cn1)[nH]c1ccc(-c3ccco3)cc12 [WYS13]
pKi (α2β3γ2 GABAA/BzR [8]; read-out: Affinity Ki α2): 7.89
pKi (α2β3γ2 GABAA/BzR [1]; read-out: Ki α2): 7.89
pKi (α1β3γ2 GABAA/BzR [2]; read-out: Ki α1): 8.61
pKi (α6β3γ2 GABAA/BzR [3]; read-out: Ki α6): 5.30
pKi (α1β3γ2 GABAA/BzR [9]; read-out: Affinity Ki α1): 8.62
pKi (α6β3γ2 GABAA/BzR [7]; read-out: Affinity Ki α6): 5.30
pKi (α5β3γ2 GABAA/BzR [4]; read-out: Ki α5): 6.79
pKi (α3β3γ2 GABAA/BzR [5]; read-out: Ki α3): 7.56
pKi (α5β3γ2 GABAA/BzR [10]; read-out: Affinity Ki α5): 6.79
pKi (α3β3γ2 GABAA/BzR [11]; read-out: Affinity Ki α3): 7.56

CC(C)(C)OC(=O)c1cc2c(cn1)[nH]c1ccc(-c3ccccc3)cc12 [WYS15]
pKi (α2β3γ2 GABAA/BzR [8]; read-out: Affinity Ki α2): 8.69
pKi (α2β3γ2 GABAA/BzR [1]; Ki α2): 8.69
pKi (α2β3γ2 GABAA/BzR [1]; read-out: Ki α2): 8.69
pKi (α1β3γ2 GABAA/BzR [2]; Ki α1): 8.44
pKi (α1β3γ2 GABAA/BzR [2]; read-out: Ki α1): 8.44
pKi (α6β3γ2 GABAA/BzR [3]; Ki α6): 5.30
pKi (α1β3γ2 GABAA/BzR [9]; read-out: Affinity Ki α1): 8.44
pKi (α5β3γ2 GABAA/BzR [4]; Ki α5): 7.12
pKi (α5β3γ2 GABAA/BzR [4]; read-out: Ki α5): 7.12
pKi (α3β3γ2 GABAA/BzR [5]; Ki α3): 7.35
pKi (α3β3γ2 GABAA/BzR [5]; read-out: Ki α3): 7.35
pKi (α5β3γ2 GABAA/BzR [10]; read-out: Affinity Ki α5): 7.12
pKi (α3β3γ2 GABAA/BzR [11]; read-out: Affinity Ki α3): 7.35

CN1Cc2c(CCl)ncn2-c2ccc(Cl)cc2C1=O [compound 5]
pKi (α2β3γ2 GABAA/BzR [8]; Figure 4, read-out: Ki α2): < 6.52
pKi (α1β3γ2 GABAA/BzR [9]; Figure 4, read-out: Ki α1): < 6.52
pKi (α6β3γ2 GABAA/BzR [7]; Figure 4, read-out: Ki α6): < 6.52
pKi (α5β3γ2 GABAA/BzR [10]; Figure 4, read-out: Ki α5): 7.55
pKi (α3β3γ2 GABAA/BzR [11]; Figure 4, read-out: Ki α3): < 6.52

CCOCc1ncn2c1CN(C)C(=O)c1cc(Cl)ccc1-2 [compound 6]
pKi (α2β3γ2 GABAA/BzR [8]; Figure 4, read-out: Ki α2): < 6.52
pKi (α1β3γ2 GABAA/BzR [9]; Figure 4, read-out: Ki α1): < 6.52
pKi (α6β3γ2 GABAA/BzR [7]; Figure 4, read-out: Ki α6): < 6.52
pKi (α5β3γ2 GABAA/BzR [10]; Figure 4, read-out: Ki α5): 7.08
pKi (α3β3γ2 GABAA/BzR [11]; Figure 4, read-out: Ki α3): < 6.52

C#Cc1ccc2c(c1)C(=O)N1CCC[C@H]1c1c(-c3nc(C)no3)ncn1-2 [compound 7]
pKi (α1β3γ2 GABAA/BzR [9]; Figure 4, read-out: Ki α1): < 7.05
pKi (α5β3γ2 GABAA/BzR [10]; Figure 4, read-out: Ki α5): 8.43

C#Cc1ccc2c(c1)C(c1ccccc1)=NCc1c(C(=O)OCCCOC(=O)c3ncn4c3CN=C(c3ccccc3)c3cc(C#C)ccc3-4)ncn1-2 [compound 63, 1,3-Bis(8-acetylenyl-6-phenyl-4H-benzo[f]imidazo[1,5-a][1,4]diazepine-3-carboxy) propyl diester]
pKi (α2β3γ2 GABAA/BzR [1]; Ki α2): 8.13
pKi (α1β3γ2 GABAA/BzR [2]; Ki α1): 6.63
pKi (α6β3γ2 GABAA/BzR [3]; Ki α6): 5.30
pKi (α5β3γ2 GABAA/BzR [4]; Ki α5): 6.71
pKi (α4β3γ2 GABAA/BzR): 5.30
pKi (α3β3γ2 GABAA/BzR [5]; Ki α3): 6.57

CN1C(=O)CN=C(c2ccccc2)c2cc(Cl)ccc21 [diazepam]
modulation [6]: agonist

Cc1ncc2n1-c1ccc(Cl)cc1C(c1ccccc1F)=NC2 [midazolam]
modulation ([6]; Supplement Table 1): agonist

Cc1nnc2n1-c1ccc(Cl)cc1C(c1ccccc1Cl)=NC2 [triazolam]
modulation ([6]; Supplement Table 1): agonist

Cc1ccc(-c2nc3ccc(C)cn3c2CC(=O)N(C)C)cc1 [zolpidem]
modulation ([6]; Supplement Table 1): agonist
